Laboratory results published in publication PMC8059561, “Lowered sensitivity of bitter taste receptors to β-glucosides in bamboo lemurs: an instance of parallel and adaptive functional decline in TAS2R16?” (Proceedings of the Royal Society B: Biological Sciences, 2021).

Assays:
TAS2R16 from P. simus = TAS2R16 from P. simus (Prolemur simus, UniProt A0A8C8ZSN9); assay: Calcium assay, HEK293T cells expressing P. simus TAS2R16 with Gα16/gust44; type: cell-based
TAS2R16 from H. aureus = assay: Calcium assay, HEK293T cells expressing H. aureus TAS2R16 with Gα16/gust44; type: cell-based, Hapalemur aureus
TAS2R16 from H. griseus = assay: Calcium assay, HEK293T cells expressing H. griseus TAS2R16 with Gα16/gust44; type: cell-based, Hapalemur griseus
TAS2R16 from L. catta = TAS2R16 from L. catta (Lemur catta, UniProt A0A4Y1QJW7); assay: Calcium assay, HEK293T cells expressing L. catta TAS2R16 with Gα16/gust44; type: cell-based; details: Calcium 4, mean ± s.e.m.
TAS2R16 P. simus L144S = target: T1, TAS2R16 P. simus L144S (Prolemur simus, UniProt A0A8C8ZSN9, L144S); assay: Calcium assay, single-point mutant P. simus L144S TAS2R16; type: cell-based
T1 sequence (A0A8C8ZSN9 1-301 L144S): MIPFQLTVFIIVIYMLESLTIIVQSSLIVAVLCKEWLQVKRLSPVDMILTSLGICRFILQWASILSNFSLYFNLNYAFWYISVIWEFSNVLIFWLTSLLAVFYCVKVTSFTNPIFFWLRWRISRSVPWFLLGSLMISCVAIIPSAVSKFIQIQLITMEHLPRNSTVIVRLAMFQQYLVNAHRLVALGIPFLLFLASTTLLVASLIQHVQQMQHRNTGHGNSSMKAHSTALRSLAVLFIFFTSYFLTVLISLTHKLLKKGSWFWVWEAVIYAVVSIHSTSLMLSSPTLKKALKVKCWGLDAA

[1] = system: TAS2R16 orthologue of Varecia variegata; set-up: method as in Itoigawa et al., [8]; details: ref Itoigawa et al., [8]; cited from earlier work
[2] = system: anc-Bamboo lemur T140A /S144L TAS2R16; assay: Calcium assay, double mutant anc-Bamboo lemur T140A/S144L (reply to referee); type: cell-based, last common ancestor (LCA) in bamboo lemurs; details: figure not shown
[3] = HEK293T, Gα16/gust44, Calcium 5, mean ± s.e.m.

TAS2R16 from L. catta, sequence (A0A4Y1QJW7 1-301): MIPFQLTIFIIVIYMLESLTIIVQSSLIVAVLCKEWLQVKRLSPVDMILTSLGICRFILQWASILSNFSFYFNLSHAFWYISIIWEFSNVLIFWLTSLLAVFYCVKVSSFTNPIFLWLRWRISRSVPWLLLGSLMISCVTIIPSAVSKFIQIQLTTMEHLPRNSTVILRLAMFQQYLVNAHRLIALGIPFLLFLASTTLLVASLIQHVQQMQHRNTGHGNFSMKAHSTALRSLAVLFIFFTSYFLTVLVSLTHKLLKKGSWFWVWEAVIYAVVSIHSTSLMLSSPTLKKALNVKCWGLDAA
TAS2R16 from P. simus, sequence (A0A8C8ZSN9 1-301): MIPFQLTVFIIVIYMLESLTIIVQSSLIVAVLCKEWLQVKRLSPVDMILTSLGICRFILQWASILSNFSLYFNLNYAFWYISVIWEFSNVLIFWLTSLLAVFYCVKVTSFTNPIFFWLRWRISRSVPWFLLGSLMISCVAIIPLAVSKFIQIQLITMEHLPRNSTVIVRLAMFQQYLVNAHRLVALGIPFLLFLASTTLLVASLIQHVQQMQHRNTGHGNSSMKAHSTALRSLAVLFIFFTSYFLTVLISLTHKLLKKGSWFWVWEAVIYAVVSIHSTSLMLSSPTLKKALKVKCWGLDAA

| SMILES | response of TAS2R16 to ligand (TAS2R16 from P. simus; at the concentrations used in the assays) | response of TAS2R16 to ligand (TAS2R16 from H. aureus) | response of TAS2R16 to ligand (TAS2R16 from H. griseus) | EC50 (TAS2R16 from L. catta) [mM] | Amax (maximal signal amplitude, ΔF/F) (TAS2R16 from H. aureus; [3]) | Amax (maximal signal amplitude, ΔF/F) (TAS2R16 from H. griseus; [3]) | EC50 (TAS2R16 P. simus L144S) [mM] | EC50 (TAS2R16 from P. simus; HEK293T, Gα16/gust44, Calcium 4) [mM] | EC50 (TAS2R16 from H. aureus; HEK293T, Gα16/gust44, Calcium 4, mean ± s.e.m.) [mM] | EC50 [1] [mM] | responses of double mutant compared to single mutant (anc-Bamboo lemur S144L) [2] |
| --- | --- | --- | --- | --- | --- | --- | --- | --- | --- | --- | --- |
| OC[C@H]1O[C@@H](Oc2ccc(O)cc2)[C@H](O)[C@@H](O)[C@@H]1O [arbutin] | did not show any responses | did not show any responses | did not show any responses | 2.3 ± 0.21 |  |  |  |  |  |  |  |
| CC(C)(C#N)O[C@@H]1O[C@H](CO)[C@@H](O)[C@H](O)[C@H]1O [linamarin] |  |  |  |  | 0.52 ± 0.041 | 0.33 ± 0.031 |  |  |  |  |  |
| OCc1ccccc1O[C@@H]1O[C@H](CO)[C@@H](O)[C@H](O)[C@H]1O [salicin] |  |  |  | 2.1 ± 0.38 |  |  | 4.3 ± 0.85 | > 40 | 6.8 ± 1.1 | 3.8 | did not show significant reduction |
